# Source: patent US20140140952A1, “D-Alanine Ester of Sp-Nucleoside Analog” (IDENIX PHARMACEUTICALS, INC., priority 2012, published 2014)
# How the values were obtained:
# [1] = Plasma pharmacokinetics following a single oral dose in CD-1 mice; assay type: in vivo; conditions: CD-1 male mice, single oral dose 10 mg/kg for I or 25 mg/kg for II in PEG 200; plasma 2′-methyl-2′-fluorouridine; 4, 12, 24 hours
# Description: Plasma samples were analyzed for 2′-methyl-2′-fluorouridine (2′-Me-2′-F-U) by LC-MS/MS. The internal standard (IS) was D3-2′-F-2′-Me-G. For protein precipitation and extraction, each plasma sample (50 μL) was treated with 500 μL of 0.2% formic acid in acetonitrile and 20 μL of the internal standard working solution. After vortexing and centrifugation, 500 μL of the sample extracts were transferred to a new plate, dried under N2 at ˜28° C. and reconstituted with 75 μL of 0.2% FA in water. The extracts were chromatographed on an Aquasil C18 column using a gradient system of 0.2% formic acid in water and acetonitrile. The analytes were detected and quantified by tandem mass spectrometry in positive ion mode on an MDS Sciex API5000 equipped with a Turbo Ionspray® interface. The calibration range was 0.500 (LLOQ) to 200 ng/mL in mouse plasma.
# [2] = Stability in human liver microsomes; assay type: in vitro ADME; conditions: human liver microsomes 1.0 mg/mL, 10 μM, NADPH, 60 min
# Description: (§1) Stability of test compounds was determined in subcellular fractions (microsomes and S9) of human liver and intestine in duplicate for each matrix. Pooled liver and intestinal microsomal, intestinal and liver S9 proteins (1.0 mg/mL), suspended in incubation buffer (100 mM potassium phosphate, pH 7.4, 5 mM MgCl2, and 0.1 mM EDTA), were preincubated for 5 min at 37° C. with 10 μM of a test compound from a 10 mM stock solution in DMSO (final DMSO concentration was 0.1%); the reaction was initiated by the addition of NADPH (3 mM final concentration). At specific times (0 and 60 min), 0.1 mL samples were taken and the reaction terminated by the addition of 4 volumes of stop solution (acetonitrile with 500 ng/mL carbutamide as an internal standard). The samples were vortexed for 30 sec and then centrifuged at 16,000 g for 10 min. Aliquots of supernatants (100 μL each) were transferred to 96 deep-well plates preloaded with 100 μL distilled water and analyzed after mixing by LC-MS/MS. The MS peak area ratio of the test compound versus the internal standard was calculated and percent unchanged test compound over 60 minutes was calculated using this ratio.
# [3] = Stability in human intestinal microsomes; assay type: in vitro ADME; conditions: human intestinal microsomes 1.0 mg/mL, 10 μM, NADPH, 60 min
# Description: as §1
# [4] = Liver pharmacokinetics (triphosphate) following a single oral dose in CD-1 mice; assay type: in vivo; conditions: CD-1 male mice, single oral dose 10 mg/kg for I or 25 mg/kg for II in PEG 200; liver 2′-methyl-2′-fluorouridine triphosphate; 4, 12, 24 hours
# Description: Liver samples were analyzed for the active species 2′-methyl-2′-fluorouridine triphosphate (2′-Me-2′-F-U TP) by LC-MS/MS. […] Internal standard solution was added to the homogenate followed by neutralization with 20% ammonium hydroxide solution and addition of 500 μL 1% formic acid. The tissue samples were extracted by weak anion exchange solid phase extraction (SPE). Post extraction, the eluates were evaporated under nitrogen, followed by reconstitution before injection onto the LC-MS/MS system. […] The calibration range was 10 to 10000 pmol/mL in mouse liver homogenate (50 to 50000 pmol/g of mouse liver).
# [5] = Cytotoxicity evaluation, CellTiter-Blue Cell Viability Assay; assay type: cell-based; conditions: human, Zluc cells (Huh-7-derived cell line), read-out: HCV Replicon CC50
# Description: For cytotoxicity evaluation, Zluc cells were treated with compound as described herein, and cell viability was monitored using the CellTiter-Blue Cell Viability Assay (Promega) by adding 20 μL of the assay solution to each well. The plates were then incubated at 37° C./5% CO2 for at least 3 hours. Fluorescence was detected in plates using excitation and emission wavelengths of 531 and 595 nm, respectively, in a Victor^3 V 1420 multilabel counter (Perkin Elmer) and CC50 values were determined using Microsoft Excel and XLfit 5.2 software.
# HCV genotype 1b replicon = assay: HCV replicon assay (Zluc luciferase reporter); assay type: cell-based; conditions: Hepatitis C virus, Zluc cells, 72 hours
# Description: Huh-7-derived cell line (Zluc) that harbors an HCV genotype 1b replicon and a luciferase reporter gene was grown in Dulbecco's Modified Eagle Medium (DMEM) supplemented with 10% fetal bovine serum, 2 mM GlutaMAX, 1% MEM nonessential amino acids, 100 IU/mL penicillin, 100 μg/mL streptomycin, and 0.5 mg/mL Geneticin® (G418). For dose response testing the cells were seeded in 96-well plates at 7.5×10^3 cells per well in a volume of 50 μL, and incubated at 37° C./5% CO2. Drug solutions were made up freshly in Huh-7 media as 2× stocks. […] were prepared from these stocks in DMEM without G418. At least three hours after Zluc cells were seeded, drug treatment was initiated by adding 50 μL of drug dilutions to the plates in duplicate. Final concentrations of drug ranged from 100 μM to 0.0000512 μM. Cells were then incubated at 37° C./5% CO2. […] For this, media was removed from the plates via gentle tapping. Fifty microliters of ONE-glo luciferase assay reagent was added to each well. The plates were shaken gently for 3 min at room temperature and luminescence was measured on a Victor^3 V 1420 multilabel counter (Perkin Elmer) with a 1 second read time using a 700 nm cut-off filter. The EC50 values were calculated from dose response curves from the resulting best-fit equations determined by Microsoft Excel and XLfit 5.2 software. […]
Compound,Ms Plasma 2′-Me-2′-F-U AUC (pmol · hr/mL at 1 μmol/kg) [1],Stability (expressed as percent remaining) HLM (1 hr) [2],Stability (expressed as percent remaining) HIM (1 hr) [3],Ms Liver 2′-Me-2′-F-U TP AUC (pmol · hr/g at 1 μmol/kg) [4],CC50 [5] [µM],EC50 (HCV genotype 1b replicon) [µM]
"CC(C)OC(=O)[C@@H](C)N[P@@](=O)(OCC1O[C@@H](n2ccc(=O)[nH]c2=O)[C@](C)(F)[C@@H]1O)Oc1ccccc1 (single isomer, unassigned) [Compound (Ia)]",+++ (400 < +++ ≦ 1000),++++ (60% < ++++ ≦ 80%),+++++ (80% < +++++),+++++ (1600 < +++++),> 50,> 10
"CC(C)OC(=O)[C@@H](C)N[P@](=O)(OCC1O[C@@H](n2ccc(=O)[nH]c2=O)[C@](C)(F)[C@@H]1O)Oc1ccccc1 (single isomer, unassigned) [Compound (Ib), D-Alanine, N—((SP,2′R)-2′-deoxy-2′-fluoro-2′-methyl-P-phenyl-5′-uridylyl)-, 1-methylethyl ester]",++ (100 < ++ ≦ 400),+++++ (80% < +++++),+++++ (80% < +++++),+++ (400 < +++ ≦ 1000),> 50,> 10
